The target in experiment [1] is T1, MMP2 (Homo sapiens, UniProt P08253).
T1 sequence (P08253 110-660): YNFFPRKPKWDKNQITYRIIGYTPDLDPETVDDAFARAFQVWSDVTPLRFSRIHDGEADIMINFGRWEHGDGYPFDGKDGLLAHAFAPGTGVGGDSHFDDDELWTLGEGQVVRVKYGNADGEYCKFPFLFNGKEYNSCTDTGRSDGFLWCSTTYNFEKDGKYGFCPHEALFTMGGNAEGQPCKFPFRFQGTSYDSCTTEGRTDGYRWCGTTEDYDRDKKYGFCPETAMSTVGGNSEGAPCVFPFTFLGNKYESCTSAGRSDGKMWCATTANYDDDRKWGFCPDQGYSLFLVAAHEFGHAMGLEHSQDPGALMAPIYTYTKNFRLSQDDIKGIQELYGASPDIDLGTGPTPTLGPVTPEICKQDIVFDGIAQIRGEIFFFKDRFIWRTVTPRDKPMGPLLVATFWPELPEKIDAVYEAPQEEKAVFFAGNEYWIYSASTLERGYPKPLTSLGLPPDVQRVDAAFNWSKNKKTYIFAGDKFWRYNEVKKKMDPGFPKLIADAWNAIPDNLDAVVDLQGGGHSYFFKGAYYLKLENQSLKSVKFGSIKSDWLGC
As to the kind of experiment: Competitive-MAMBI: loss of HxBP-Bt probe labeling with competitive inhibitor. The experiment is classed as binding. On the set-up: purchased Peprotech. The following applies: inhibitor 0.17-7.5 μM, HxBP-Bt 0.5 μM.

For experiment [2], the target named is T2, MMP3 (Homo sapiens, UniProt P08254). Described as above. Format: binding. On the set-up: purchased Peprotech. Particulars: recombinant and menstrual effluent, inhibitor 0.17-7.5 μM, HxBP-Bt 0.5 μM. The method, then:
(§1) The MAMBI platform was utilized for characterization of inhibitors, in which the HxBP-Bt probe binding to active metalloproteinase was assayed in the presence of small molecule metalloproteases inhibitors. The relative inhibitor potencies were quantified by the loss of labeling by activity-based probe of a target protease with the addition of a competitive inhibitor. Selectivity was additionally estimated by monitoring relative potencies across an enzyme superfamily.
(§2) The relative inhibition by 10 commercially available inhibitors was characterized in a mixture of six recombinant MMPs, as well as in menstrual serum effluent.
(§3) Protease labeling was reported as a fraction of MAMBI signal without competitive inhibition.
Target sequence in this assay (P08254 100-477): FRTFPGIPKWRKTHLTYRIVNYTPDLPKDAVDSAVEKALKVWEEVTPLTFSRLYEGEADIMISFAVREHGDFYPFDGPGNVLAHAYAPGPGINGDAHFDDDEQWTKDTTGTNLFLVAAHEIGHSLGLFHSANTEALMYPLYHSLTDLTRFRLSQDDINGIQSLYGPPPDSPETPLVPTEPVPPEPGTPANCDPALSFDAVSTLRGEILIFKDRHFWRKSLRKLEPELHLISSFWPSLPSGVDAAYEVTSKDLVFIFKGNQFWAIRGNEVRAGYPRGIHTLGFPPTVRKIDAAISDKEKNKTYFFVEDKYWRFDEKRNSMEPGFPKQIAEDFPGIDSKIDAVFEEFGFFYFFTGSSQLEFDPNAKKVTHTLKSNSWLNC

Experiment [3] relates to panel of MMPs (MMP1, MMP2, MMP3, MMP7, MMP9, MMP12). The description is as above. Format: binding, human. The following applies: recombinant MMPs and menstrual effluent; inhibitor 0.17-7.5 μM, HxBP-Bt 0.5 μM.
Experiment [4] concerns the target T3, MMP7 (Homo sapiens, UniProt P09237).
T3 sequence (P09237 95-267): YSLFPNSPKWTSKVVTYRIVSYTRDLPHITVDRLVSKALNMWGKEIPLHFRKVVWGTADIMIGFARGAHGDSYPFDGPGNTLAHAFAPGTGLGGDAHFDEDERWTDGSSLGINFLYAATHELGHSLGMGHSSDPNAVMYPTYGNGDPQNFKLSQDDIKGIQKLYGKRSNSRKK
Particulars: literature; cited from earlier work.

The target in experiment [5] is T4, MMP9 (Homo sapiens, UniProt P14780). The following applies: literature; cited from earlier work.
Target sequence in this assay (P14780 94-707, species assumed): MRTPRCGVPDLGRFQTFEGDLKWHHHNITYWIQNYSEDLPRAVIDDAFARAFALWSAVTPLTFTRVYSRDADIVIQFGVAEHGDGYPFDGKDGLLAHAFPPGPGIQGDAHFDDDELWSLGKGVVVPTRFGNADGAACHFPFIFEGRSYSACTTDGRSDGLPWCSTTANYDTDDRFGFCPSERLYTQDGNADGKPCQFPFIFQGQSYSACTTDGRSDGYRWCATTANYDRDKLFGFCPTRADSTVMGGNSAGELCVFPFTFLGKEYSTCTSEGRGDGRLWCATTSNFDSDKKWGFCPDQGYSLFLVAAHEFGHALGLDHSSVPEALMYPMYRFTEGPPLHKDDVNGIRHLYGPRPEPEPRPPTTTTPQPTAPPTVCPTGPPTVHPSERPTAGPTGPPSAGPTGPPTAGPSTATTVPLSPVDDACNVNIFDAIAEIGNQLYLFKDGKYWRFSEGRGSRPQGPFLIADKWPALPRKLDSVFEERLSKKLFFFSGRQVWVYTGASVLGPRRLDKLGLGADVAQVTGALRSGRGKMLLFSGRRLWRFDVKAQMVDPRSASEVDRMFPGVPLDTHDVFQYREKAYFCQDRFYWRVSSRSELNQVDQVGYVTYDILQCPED
The next experiment has as its system active recombinant MMPs. Particulars: single recombinant MMPs, 500 nM HxBP-Bt.
Experiment [6] addresses T4, MMP9. As to the kind of experiment: Competitive-MAMBI: loss of HxBP-Bt probe labeling with competitive inhibitor. The experiment is classed as binding. Also noted: The recombinant catalytic domains of human MMPs 7 and 9 were purchased from Enzo Life Sciences, and of MMP 12 from Anaspec; purchased Enzo Life Sciences. The following applies: MMP9 (gelatinase); inhibitor 0.17-7.5 μM, HxBP-Bt 0.5 μM. The method, then:
as §1, §2, §3
Target sequence in this assay (P14780 107-449 limits assumed): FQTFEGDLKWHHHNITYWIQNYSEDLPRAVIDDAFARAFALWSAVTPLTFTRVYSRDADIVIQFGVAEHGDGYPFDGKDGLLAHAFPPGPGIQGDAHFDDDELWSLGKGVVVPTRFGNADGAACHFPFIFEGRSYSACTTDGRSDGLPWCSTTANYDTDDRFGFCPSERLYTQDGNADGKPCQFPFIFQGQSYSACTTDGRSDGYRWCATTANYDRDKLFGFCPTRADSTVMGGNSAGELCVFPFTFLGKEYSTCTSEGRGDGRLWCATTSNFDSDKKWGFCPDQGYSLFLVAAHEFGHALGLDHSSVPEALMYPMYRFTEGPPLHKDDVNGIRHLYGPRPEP

Experiment [7] deals with T1, MMP2. Particulars: literature; cited from earlier work.
Another experiment addresses T5, MMP1 (Homo sapiens, UniProt P03956).
T5 sequence (P03956 100-469): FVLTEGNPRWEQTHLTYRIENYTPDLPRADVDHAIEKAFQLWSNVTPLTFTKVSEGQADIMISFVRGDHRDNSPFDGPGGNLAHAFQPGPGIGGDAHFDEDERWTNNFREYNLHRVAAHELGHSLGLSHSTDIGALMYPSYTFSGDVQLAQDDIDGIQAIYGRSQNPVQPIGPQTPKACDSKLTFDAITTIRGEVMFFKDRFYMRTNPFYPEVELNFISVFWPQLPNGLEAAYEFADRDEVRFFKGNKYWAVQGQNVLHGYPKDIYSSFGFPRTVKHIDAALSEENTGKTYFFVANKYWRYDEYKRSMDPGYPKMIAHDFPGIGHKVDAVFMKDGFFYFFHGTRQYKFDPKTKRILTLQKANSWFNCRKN
The experiment is described as follows: Competitive-MAMBI: loss of HxBP-Bt probe labeling with competitive inhibitor. The experiment is classed as binding. On the set-up: purchased Peprotech. The following applies: recombinant and effluent derived samples, inhibitor 0.17-7.5 μM, HxBP-Bt 0.5 μM.

Experiment [8] addresses T3, MMP7. The description is as above. Format: binding. On the set-up: The recombinant catalytic domains of human MMPs 7 and 9 were purchased from Enzo Life Sciences, and of MMP 12 from Anaspec; purchased Enzo Life Sciences. Particulars: recombinant and effluent derived samples, inhibitor 0.17-7.5 μM, HxBP-Bt 0.5 μM. The method, then: as §1, §2, §3
Experiment [9] concerns the target T2, MMP3. The following applies: literature; cited from earlier work.
Target sequence in this assay (P08254 100-477, species assumed): as the sequence (P08254 100-477) above
Another experiment concerns the target MMP12 (Homo sapiens, UniProt P39900). Particulars: literature; cited from earlier work.

Sequence of MMP12 (P39900 106-470, species assumed): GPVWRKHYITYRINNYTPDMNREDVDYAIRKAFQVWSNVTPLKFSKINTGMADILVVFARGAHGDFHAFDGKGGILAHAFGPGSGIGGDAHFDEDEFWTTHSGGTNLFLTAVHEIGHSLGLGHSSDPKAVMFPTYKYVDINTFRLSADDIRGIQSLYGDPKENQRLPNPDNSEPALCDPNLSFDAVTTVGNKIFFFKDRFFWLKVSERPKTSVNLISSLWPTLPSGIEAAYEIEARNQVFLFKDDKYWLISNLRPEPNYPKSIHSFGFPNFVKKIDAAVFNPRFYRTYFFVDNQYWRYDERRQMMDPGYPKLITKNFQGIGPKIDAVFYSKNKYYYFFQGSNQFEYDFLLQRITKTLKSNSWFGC
Protocol for active recombinant MMPs: A single active recombinant MMP (5 nM by mass, 5 μL total vol) was incubated with HxBP-Bt (30 min at 37° C., 500 nM final HxBP-Bt concentration) under reversible binding conditions. Tested MMPs included MMP1, MMP2, MMP3, MMP7, MMP8, MMP9, MMP10, MMP12, and MMP13. Each containing biotin-labeled MMP (MMP reversibly bound to HxBP-Bt) was then incubated with a cocktail of MMP capture beads (60 minutes, RT, 25 μL total vol).
A cocktail of MMP capture beads diluted in Microparticle Diluent 3 (R&D systems; PN 895857) (17.5 μL bead suspension) was added to the HxBP-Bt-labeled sample (7.5 μL) in a 384-well plate (60 minutes, with rotary agitation, room temperature). Samples were washed 3 times with PBS 0.1% TWEEN®-20 (300 μl each wash) using the Magnetic BioTek plate washer (405 Select TS), incubated with Streptavidin-R-Phycoerythrin (10 μg/mL) diluted in diluted wash buffer concentrate (R&D systems; PN 895003) (15 minutes, with rotary agitation, room temperature), and again washed 3 times by plate washer. Samples were immediately characterized using the FLEXMAP 3D system (Luminex).

For `CC(C)ON([C@@H](C(=O)NO)C(C)C)S(=O)(=O)c1ccc(-c2ccccc2)cc1` [ARP 101], the “inhibitory activity (loss of probe labeling)” value at MMP2 [1] and at MMP3 [2] was “increased potency” throughout.
Usually IC50 stands for the concentration needed to halve the response being measured. Consider `CNC(=O)[C@H](Cc1ccccc1)NC(=O)[C@H](CC(C)C)[C@H](CSc1cccs1)C(=O)NO` [Batimastat], for which the “inhibitory activity (loss of probe labeling)” value in experiment [3] is “inhibitory activity toward every protease tested”; on MMP3 [2], “stronger inhibitory activity against MMP3 compared with Marimastat”. In addition, the concentration for half-maximal inhibition (IC50) on MMP7 [4] is 6 nM; on MMP9 [5], 1 nM.
Consider `O=C(O)CN(CCN(CC(=O)O)CC(=O)O)CC(=O)O` [EDTA, Ethylenediaminetetraacetic acid], for which, in the experiment with active recombinant MMPs, the “effect on HxBP-Bt binding (MAMBI signal)” value was “completely eliminated HxBP-Bt binding”.
Consider `N#Cc1ccc(-c2ccc(OCCC(=O)NO)cc2)cc1` [MMP Inhib 3 VII, MMP3 Inhibitor VII], for which the “inhibitory activity (loss of probe labeling)” value on MMP3 [2] was “expected inhibition of MMP3”.
With `O=P(O)(O)C(NS(=O)(=O)c1ccc(-c2ccc(Cl)cc2)cc1)P(=O)(O)O` [MMP inhibitor 2, MMP Inhibitor 2 IV], the concentration for half-maximal inhibition (IC50) at MMP9 [5] was more than 1000 nM. For the same compound, the “inhibitory activity (loss of probe labeling)” value on MMP2 [1] and at MMP9 [6] was “did not prevent the binding of HxBP-Bt” throughout.
For `CNC(=O)[C@@H](NC(=O)[C@H](CC(C)C)[C@H](O)C(=O)NO)C(C)(C)C` [Marimastat], in experiment [3], the “inhibitory activity (loss of probe labeling)” value is reported as “inhibitory activity toward every protease tested”.
For the compound `O=C(O)C[C@@H](NC(=O)c1cc(-c2ccc(-c3ccncc3)cc2)cs1)c1ccccc1` [PF 356231], the results for the IC50 at MMP2 [7] and on MMP7 [4] were more than 100 nM and 96000 nM, respectively.
For orientation: Ki means the dissociation constant of the complex between target and ligand, obtained from inhibition or displacement. Regarding `CN1C(=O)N(CC(C(=O)NO)[C@H](CC2CCCC2)C(=O)N2CCCCC2)C(=O)C1(C)C` (stereo partly shown) [Ro32-3555, Ro 32-3555 (Trocade)], the Ki at MMP2 [7] is 154 nM; at MMP7 [4] it was 42 nM; at MMP9 [5] it was 95 nM. Also, the “inhibitory activity (loss of probe labeling)” value at MMP1 and at MMP7 [8] was “significant potency” throughout.
As to `O=S(=O)(CC1CS1)c1ccc(Oc2ccccc2)cc1` (stereo not shown) [SB 3CT, SB-3CT], the “inhibitory activity (loss of probe labeling)” value at MMP9 [6] was “did not prevent the binding of HxBP-Bt”.
On to `COC[C@H](NC(=O)[C@H](NC(=O)[C@@H](CCCc1ccc(-c2ccccc2)c(C)c1)CC(=O)O)C(C)(C)C)c1ccccc1` [UK 370106], for which the IC50 was 23 nM at MMP3 [9], 5800 nM on MMP7 [4], 30400 nM at MMP9 [5] and 42 nM on MMP12. In addition, at MMP3 [2], the “inhibitory activity (loss of probe labeling)” value is recorded as “expected inhibition of MMP3”.

These data come from patent US11408885B2, “Compositions and multiplex assays for characterizing active proteases and their inhibitors” (Massachusetts Institute of Technology, priority 2017, dated 2022).
